Data set [1] concerns the target Kv11.1 (hERG) ion channel (Homo sapiens (Human), UniProt Q12809). In words: Kv11.1 (hERG) ion channel activity, whole cell patch clamp in HEK293. As to conditions: for Ki: heading: hERG Ki, HEK293 cells stably expressing hERG, patch clamp. Type of data set: cell-based. On the procedure: Kv11.1 (hERG) Ion Channel Activity
In this assay, a potential in vitro effect of test compounds on the Kv11.1 (hERG) ion channel current is investigated which mediates the rapidly activating, delayed rectifier cardiac potassium current (IKr). The assay is performed with a stable Kv11.1 (hERG) transfected human embryonic kidney cell line (HEK293) by whole cell patch clamp technique carried out at room temperature.
The Kv11.1 (hERG) ion channel blocker quinidine is used as reference compound. The effects of the test compounds and quinidine are normalized to the corresponding vehicle control. The whole cell recordings are carried out with an automated patch clamp device Patchliner™, Nanion Technologies, Munich). Hereby the Patch Clamp measurements run on silicate-coated chips with a hole of a defined diameter. Solutions, cell suspension and compounds are applied by a Teflon-laminated pipette needle through microfluidic silicate-laminated channels. Commercial patch clamp amplifiers (EPC10, HEKA Elektronik Dr. Schulze GmbH, Germany) are used for the patch clamp recordings. HEK293 cells stably expressing the hERG gene are held at −80 mV. Steady-state inhibition of Kv11.1 (hERG) potassium current due to test/reference compound application is measured using a pulse pattern with fixed amplitudes: 51 ms/−80 mV, 500 ms/+40 mV, 500 ms/−40 mV, 200 ms/−80 mV. The hERG-specific voltage protocol is repeated at 10 s intervals. The leak current is subtracted by a P4 leak subtraction. Cells are resuspended in extracellular patch clamp solution (EC) and applied into the chip. After trapping the cell, the EC is exchanged by seal enhancer solution (SE) to improve the sealing procedure. When the whole cell configuration is attained, seal enhancer is washed out by the application of EC. The recording is started in EC for 1.5 min. Afterwards DMSO (vehicle control, 0.1% DMSO) is applied and the control current is measured for 3 min. Following control steady-state current, test compound is applied twice at the same concentration and the tail current is measured for 3.5 min each. For the determination of a concentration-relationship, the test compound is applied as a cumulative concentration-response curve and each concentration is measured for 5 min. The reference compound quinidine is treated in the same way. The effect on Kv11.1 (hERG) ion channel activity is judged from the tail current amplitude monitored at −40 mV (current of interest, COI). Results are calculated from the last recorded current traces. Changes in Kv11.1 (hERG) ion channel activity between control value, defined as 100% Kv11.1 (hERG) ion channel activity, application of test compound and application of quinidine is reported as percent change of control value of COI. An aliquot of test compound is collected for concentration verification during the recording. The sample is immediately measured by HPLC and the final compound concentration within the assay is calculated according to a calibration curve.

Data set [2] has as its system phosphorylation of Chk1 (Ser 345) in HT29 colon adenocarcinoma cells. In words: pCHK1 cellular assay. Type of data set: cell-based. To be noted: Homo sapiens, HT-29, hydroxyurea 3 mM, 4 h. In outline: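 HT29 cells plated ≥20 h, then compound (1 nM–30 μM final) with hydroxyurea (3 mM final) added together for 4 h at 37 °C. After MeOH/Triton fixation-permeabilisation, anti-pChk1 immunostaining plus nuclear stain; nuclear pChk1 imaged by confocal high content reader, reported as % positive nuclei.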

For the next data set, the target named is ATR/ATRIP (Homo sapiens (Human), UniProt Q13535). Kind of data set: ATR/ATRIP kinase assay (TR-FRET, p53 Ser15 phosphorylation). To be noted: 0.5 μM ATP, 50 nM p53. Format: biochemical. The method, boiled down:
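Full-length human ATR/ATRIP co-expressed in mammalian cells (typically 0.3 nM) preincubated with compound 15 min at 22° C, then 50 nM cmyc-p53 and 0.5 μM ATP added for typically 25 min; HEPES pH 8.0 with Mg2+/Mn2+. p53 Ser15 phosphorylation read by HTRF (665/615 ratio); IC50 by nonlinear regression.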
For orientation: Time-resolved FRET reads energy transfer from a long-lived donor to a nearby acceptor.

Molecules are shown by their SMILES. Bounds are passed on as bounds.

Chain of Kv11.1 (hERG) ion channel (Q12809 whole entry): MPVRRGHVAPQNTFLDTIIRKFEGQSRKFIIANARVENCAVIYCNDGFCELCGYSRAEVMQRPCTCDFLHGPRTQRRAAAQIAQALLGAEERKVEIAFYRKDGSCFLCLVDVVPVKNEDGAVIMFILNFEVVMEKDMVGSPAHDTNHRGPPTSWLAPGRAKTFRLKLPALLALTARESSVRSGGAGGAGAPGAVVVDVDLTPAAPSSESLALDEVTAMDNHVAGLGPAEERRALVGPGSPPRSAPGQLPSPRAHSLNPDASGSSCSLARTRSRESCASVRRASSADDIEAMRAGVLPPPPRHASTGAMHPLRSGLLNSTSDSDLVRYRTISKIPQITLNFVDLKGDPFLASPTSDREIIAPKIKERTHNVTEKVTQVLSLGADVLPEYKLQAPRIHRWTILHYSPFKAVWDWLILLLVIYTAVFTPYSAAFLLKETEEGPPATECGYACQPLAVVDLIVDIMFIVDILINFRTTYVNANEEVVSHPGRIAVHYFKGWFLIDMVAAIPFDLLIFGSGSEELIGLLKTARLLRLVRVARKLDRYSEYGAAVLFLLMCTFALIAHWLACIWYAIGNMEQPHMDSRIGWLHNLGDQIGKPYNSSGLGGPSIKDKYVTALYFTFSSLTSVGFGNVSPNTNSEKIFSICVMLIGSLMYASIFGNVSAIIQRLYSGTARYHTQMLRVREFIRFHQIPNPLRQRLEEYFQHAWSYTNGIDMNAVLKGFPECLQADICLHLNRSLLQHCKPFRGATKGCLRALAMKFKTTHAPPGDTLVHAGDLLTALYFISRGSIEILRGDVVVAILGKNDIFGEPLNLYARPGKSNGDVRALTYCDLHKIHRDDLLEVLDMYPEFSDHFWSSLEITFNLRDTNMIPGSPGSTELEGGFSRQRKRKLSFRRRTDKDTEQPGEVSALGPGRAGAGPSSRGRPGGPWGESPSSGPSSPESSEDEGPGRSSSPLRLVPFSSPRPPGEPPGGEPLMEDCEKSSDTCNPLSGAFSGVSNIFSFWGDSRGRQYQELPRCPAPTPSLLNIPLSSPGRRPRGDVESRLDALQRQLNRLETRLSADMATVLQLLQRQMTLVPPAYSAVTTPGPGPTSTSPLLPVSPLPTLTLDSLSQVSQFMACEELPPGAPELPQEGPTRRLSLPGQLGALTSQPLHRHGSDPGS
Chain of ATR/ATRIP (Q13535 whole entry): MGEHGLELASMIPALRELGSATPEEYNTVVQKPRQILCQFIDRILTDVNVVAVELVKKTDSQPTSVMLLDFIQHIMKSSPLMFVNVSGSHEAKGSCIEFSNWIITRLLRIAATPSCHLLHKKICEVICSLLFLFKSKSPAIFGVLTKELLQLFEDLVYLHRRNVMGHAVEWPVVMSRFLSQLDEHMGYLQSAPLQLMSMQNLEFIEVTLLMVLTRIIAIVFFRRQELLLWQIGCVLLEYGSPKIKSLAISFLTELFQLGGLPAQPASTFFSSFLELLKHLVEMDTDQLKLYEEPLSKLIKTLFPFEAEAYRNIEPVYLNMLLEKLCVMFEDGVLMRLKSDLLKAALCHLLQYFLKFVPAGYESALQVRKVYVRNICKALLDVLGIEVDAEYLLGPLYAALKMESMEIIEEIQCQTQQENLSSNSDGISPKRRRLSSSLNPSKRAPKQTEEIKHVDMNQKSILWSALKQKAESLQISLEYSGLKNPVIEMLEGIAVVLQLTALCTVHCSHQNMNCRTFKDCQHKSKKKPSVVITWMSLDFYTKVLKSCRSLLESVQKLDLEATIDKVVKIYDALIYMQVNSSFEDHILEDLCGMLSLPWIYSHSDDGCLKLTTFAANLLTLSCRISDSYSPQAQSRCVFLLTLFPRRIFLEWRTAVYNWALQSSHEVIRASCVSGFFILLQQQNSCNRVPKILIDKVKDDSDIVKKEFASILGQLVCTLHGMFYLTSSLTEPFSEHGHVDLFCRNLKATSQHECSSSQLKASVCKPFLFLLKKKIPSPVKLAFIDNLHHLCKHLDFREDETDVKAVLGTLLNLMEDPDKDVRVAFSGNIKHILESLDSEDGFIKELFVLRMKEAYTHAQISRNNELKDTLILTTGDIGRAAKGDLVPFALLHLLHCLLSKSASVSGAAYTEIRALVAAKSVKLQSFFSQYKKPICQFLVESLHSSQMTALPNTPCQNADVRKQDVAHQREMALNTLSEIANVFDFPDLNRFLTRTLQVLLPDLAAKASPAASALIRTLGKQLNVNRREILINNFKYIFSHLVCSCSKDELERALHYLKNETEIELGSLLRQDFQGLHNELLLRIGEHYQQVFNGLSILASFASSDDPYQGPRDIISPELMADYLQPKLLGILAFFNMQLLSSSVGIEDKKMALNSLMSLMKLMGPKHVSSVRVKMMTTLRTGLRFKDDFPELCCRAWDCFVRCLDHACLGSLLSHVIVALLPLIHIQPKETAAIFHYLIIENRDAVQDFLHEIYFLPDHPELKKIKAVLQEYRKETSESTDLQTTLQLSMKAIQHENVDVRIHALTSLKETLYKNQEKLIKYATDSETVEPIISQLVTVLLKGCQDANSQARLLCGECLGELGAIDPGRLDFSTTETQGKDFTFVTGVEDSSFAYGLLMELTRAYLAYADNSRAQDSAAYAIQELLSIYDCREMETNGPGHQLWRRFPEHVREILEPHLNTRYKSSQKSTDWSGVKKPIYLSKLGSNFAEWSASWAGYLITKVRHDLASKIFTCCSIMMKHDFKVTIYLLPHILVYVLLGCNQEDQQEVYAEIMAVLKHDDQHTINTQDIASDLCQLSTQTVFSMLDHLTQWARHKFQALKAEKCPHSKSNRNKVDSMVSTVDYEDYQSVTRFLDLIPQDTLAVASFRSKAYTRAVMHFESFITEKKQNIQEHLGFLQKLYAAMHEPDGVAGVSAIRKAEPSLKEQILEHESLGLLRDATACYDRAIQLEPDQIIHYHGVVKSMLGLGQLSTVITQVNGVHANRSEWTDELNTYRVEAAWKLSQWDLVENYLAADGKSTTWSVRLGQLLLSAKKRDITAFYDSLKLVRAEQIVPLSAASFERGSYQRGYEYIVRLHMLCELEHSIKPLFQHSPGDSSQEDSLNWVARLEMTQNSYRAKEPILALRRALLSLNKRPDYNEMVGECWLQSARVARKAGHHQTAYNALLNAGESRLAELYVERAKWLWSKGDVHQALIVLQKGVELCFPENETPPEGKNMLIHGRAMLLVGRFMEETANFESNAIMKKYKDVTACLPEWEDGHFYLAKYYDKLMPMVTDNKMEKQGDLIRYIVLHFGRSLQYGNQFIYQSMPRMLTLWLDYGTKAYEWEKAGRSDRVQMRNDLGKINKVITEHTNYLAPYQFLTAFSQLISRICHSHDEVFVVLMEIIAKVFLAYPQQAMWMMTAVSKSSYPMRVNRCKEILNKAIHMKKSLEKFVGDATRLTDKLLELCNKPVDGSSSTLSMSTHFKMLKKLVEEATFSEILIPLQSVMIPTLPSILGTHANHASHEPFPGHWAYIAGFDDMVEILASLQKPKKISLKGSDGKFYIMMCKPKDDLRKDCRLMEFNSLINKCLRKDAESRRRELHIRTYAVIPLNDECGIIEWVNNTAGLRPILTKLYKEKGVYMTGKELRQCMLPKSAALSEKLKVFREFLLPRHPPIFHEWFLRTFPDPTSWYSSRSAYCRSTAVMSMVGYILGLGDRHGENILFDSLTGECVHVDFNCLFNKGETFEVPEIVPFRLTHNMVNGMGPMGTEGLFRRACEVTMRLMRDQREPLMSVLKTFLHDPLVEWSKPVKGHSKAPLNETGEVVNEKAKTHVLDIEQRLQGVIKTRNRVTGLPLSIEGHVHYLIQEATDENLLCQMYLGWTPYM
Chain of ATR/ATRIP (Q8WXE1 whole entry partner): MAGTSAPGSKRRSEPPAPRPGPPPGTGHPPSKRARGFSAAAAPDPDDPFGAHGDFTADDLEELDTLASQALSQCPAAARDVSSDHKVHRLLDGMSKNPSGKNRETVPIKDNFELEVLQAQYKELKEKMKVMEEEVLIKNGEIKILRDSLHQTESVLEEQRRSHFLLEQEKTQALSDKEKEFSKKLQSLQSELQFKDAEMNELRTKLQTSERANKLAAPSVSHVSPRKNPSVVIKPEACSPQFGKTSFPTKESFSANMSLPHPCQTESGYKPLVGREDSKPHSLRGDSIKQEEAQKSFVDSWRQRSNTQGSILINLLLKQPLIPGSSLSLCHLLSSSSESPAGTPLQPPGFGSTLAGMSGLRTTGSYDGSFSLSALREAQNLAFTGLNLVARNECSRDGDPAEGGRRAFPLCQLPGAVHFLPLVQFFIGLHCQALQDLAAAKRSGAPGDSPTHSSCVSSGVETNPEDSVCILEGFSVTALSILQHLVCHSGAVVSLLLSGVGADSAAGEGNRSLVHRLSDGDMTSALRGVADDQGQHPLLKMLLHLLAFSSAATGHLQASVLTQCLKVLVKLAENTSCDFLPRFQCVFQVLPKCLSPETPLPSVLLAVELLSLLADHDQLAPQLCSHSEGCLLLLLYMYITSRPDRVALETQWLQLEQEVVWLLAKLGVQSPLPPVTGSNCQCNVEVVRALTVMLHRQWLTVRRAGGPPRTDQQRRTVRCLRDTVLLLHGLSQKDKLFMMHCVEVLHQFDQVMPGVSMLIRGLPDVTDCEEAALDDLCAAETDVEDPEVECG

As usually defined, the Ki is a dissociation constant, usually derived from enzyme kinetics or from competition with a known ligand. Low readings indicate tighter binding, high ones weaker binding. For orientation: IC50 means the concentration that gives 50% inhibition. Lower therefore signals inhibition by little substance. `C[C@@H]1COCCN1c1cc([C@H]2CCCOC2)c2c(n1)c(-c1ccn[nH]1)nn2C` [Compound 68, 1-Methyl-5-((R)-3-methyl-morpholin-4-yl)-3-(2H-pyrazol-3-yl)-7-(R)-tetrahydro-pyran-3-yl-1H-pyrazolo[4,3-b]pyridine]: the “hERG % effect @ conc” value in data set [1] (@ 30 μM) is given as −35%. Moreover, the inhibition constant (Ki) in data set [1] was over 30000 nM. In data set [2], the IC50 is 10 to 100 nM.

`C[C@@H]1COCCN1c1cc(-c2ccnn2C(F)F)c2c(n1)c(-c1ccn[nH]1)nn2C` [Compound 78, (3R)-4-{7-[1-(Difluoromethyl)-1H-pyrazol-5-yl]-1-methyl-3-(1H-pyrazol-5-yl)-1H-pyrazolo[4,3-b]pyridin-5-yl}-3-methylmorpholine]: the “hERG % effect @ conc” value in data set [1] (@ 30 μM) is reported as −12%. Moreover, the Ki in data set [1] was over 30000 nM. In addition, the 50% inhibitory concentration (IC50) in data set [2] lay in the range of 10 to 100 nM.

As for `C[C@@H]1COCCN1c1cc(-c2ccn(CCF)n2)c2c(n1)c(-c1cc[nH]n1)nn2C` [Compound 34, 7-[1-(2-Fluoro-ethyl)-1H-pyrazol-3-yl]-1-methyl-5-((R)-3-methyl-morpholin-4-yl)-3-(1H-pyrazol-3-yl)-1H-pyrazolo[4,3-b]pyridine], in data set [1] (@ 10 μM), the “hERG % effect @ conc” value was −1%. Moreover, the Ki in data set [1] was over 10000 nM. Further, the IC50 is 6.1 nM at ATR/ATRIP and 10 to 100 nM in data set [2].

On to `C[C@@H]1COCCN1c1cc(-c2cccc(C#N)c2)c2c(n1)c(-c1cc[nH]n1)nn2C` [Compound 48, 3-{1-Methyl-5-[(3R)-3-methylmorpholin-4-yl]-3-(1H-pyrazol-3-yl)-1H-pyrazolo[4,3-b]pyridin-7-yl}benzonitrile], for which the “hERG % effect @ conc” value in data set [1] (@ 10 μM) is on record as −32%. Further, in data set [1], the Ki is over 10000 nM. The IC50 on ATR/ATRIP was 2 nM; in data set [2] it was 10 to 100 nM.

For `C[C@@H]1COCCN1c1cc([C@@H]2CCCOC2)c2c(n1)c(-c1ccn[nH]1)nn2C` [Compound 69, 1-Methyl-5-((R)-3-methyl-morpholin-4-yl)-3-(2H-pyrazol-3-yl)-7-(S)-tetrahydro-pyran-3-yl-1H-pyrazolo[4,3-b]pyridine], in data set [1] (@ 30 μM), the “hERG % effect @ conc” value is −29%. This compound registered an inhibition constant (Ki) in data set [1] of over 30000 nM. The same compound yielded an IC50 in data set [2] of 10 to 100 nM.

On to `C[C@@H]1COCCN1c1cc([C@@H]2CCOC2)c2c(n1)c(-c1ccn[nH]1)nn2C` [Compound 71, 1-Methyl-5-((R)-3-methyl-morpholin-4-yl)-3-(2H-pyrazol-3-yl)-7-(S)-tetrahydro-furan-3-yl-1H-pyrazolo[4,3-b]pyridine], for which, in data set [1] (@ 10 μM), the “hERG % effect @ conc” value was −16%. The compound further registered an inhibition constant Ki in data set [1] of over 10000 nM. In data set [2], this compound displayed an IC50 of 10 to 100 nM.

Turning to `Cc1ccccc1-c1cc(N2CCOC[C@H]2C)nc2c(-c3cc[nH]n3)n[nH]c12` [Compound 35, (3R)-3-Methyl-4-[7-(2-methylphenyl)-3-(1H-pyrazol-3-yl)-1H-pyrazolo[4,3-b]pyridin-5-yl]morpholine], the “hERG % effect @ conc” value in data set [1] (@ 10 μM) was −23%. In data set [1], this compound displayed a Ki of over 10000 nM. The figures for the IC50 (against ATR/ATRIP; in data set [2]) were 0.5 nM and 10 to 100 nM, respectively.

In the case of `C[C@@H]1COCCN1c1cc(-c2ccc([S+](C)[O-])cc2)c2c(n1)c(-c1cc[nH]n1)nn2C` (stereo partly drawn) [Compound 5, 7-(4-Methanesulfinyl-phenyl)-1-methyl-5-((R)-3-methyl-morpholin-4-yl)-3-(1H-pyrazol-3-yl)-1H-pyrazolo[4,3-b]pyridine], in data set [1] (@ 10 μM), the “hERG % effect @ conc” value was −22%. This compound displayed a Ki in data set [1] of over 10000 nM. The IC50 was 3.5 nM on ATR/ATRIP and 10 to 100 nM in data set [2].

Consider `Cc1nn(C)cc1-c1cc(N2CCOC[C@H]2C)nc2c(-c3cc[nH]n3)nn(C)c12` [Compound 19, 7-(1,3-Dimethyl-1H-pyrazol-4-yl)-1-methyl-5-((R)-3-methyl-morpholin-4-yl)-3-(1H-pyrazol-3-yl)-1H-pyrazolo[4,3-b]pyridine], for which, in data set [1] (@ 10 μM), the “hERG % effect @ conc” value is −6%. In data set [1], the Ki was over 10000 nM. The IC50 on ATR/ATRIP was 3.4 nM; in data set [2], 10 to 100 nM.

In the case of `C[C@@H]1COCCN1c1cc(C2(S(C)(=O)=O)CC2)c2c(n1)c(-c1cc[nH]n1)nn2C` [Compound 26, 7-(1-Methanesulfonyl-cyclopropyl)-1-methyl-5-((R)-3-methyl-morpholin-4-yl)-3-(1H-pyrazol-3-yl)-1H-pyrazolo[4,3-b]pyridine], the “hERG % effect @ conc” value in data set [1] (@ 30 μM) is given as −24%. The compound further yielded a Ki in data set [1] of over 30000 nM. The IC50 against ATR/ATRIP was 0.8 nM; in data set [2] it was 10 to 100 nM.

As to `C[C@@H]1COCCN1c1cc(C2CCOCC2)c2c(n1)c(-c1ccn[nH]1)nn2C` [Compound 55, 1-Methyl-5-((R)-3-methyl-morpholin-4-yl)-3-(2H-pyrazol-3-yl)-7-(tetrahydro-pyran-4-yl)-1H-pyrazolo[4,3-b]pyridine], the “hERG % effect @ conc” value in data set [1] (@ 10 μM) is recorded as −14%. The same compound returned a Ki in data set [1] of over 10000 nM. Further, the IC50 is 0.7 nM at ATR/ATRIP and 10 to 100 nM in data set [2].

`C[C@@H]1COCCN1c1ccc2c(n1)c(-c1ccn[nH]1)nn2C` [Compound 40, (3R)-3-Methyl-4-[1-methyl-3-(1H-pyrazol-5-yl)-1H-pyrazolo[4,3-b]pyridin-5-yl]morpholine]: in data set [1] (@ 10 μM), the “hERG % effect @ conc” value is reported as 9%. Besides, in data set [1], the Ki is over 10000 nM. For the same compound, the values for the 50% inhibitory concentration (IC50) (on ATR/ATRIP; in data set [2]) were 50.6 nM and 100 to 1000 nM, respectively.

Take `C[C@@H]1COCCN1c1cc(-c2ccc(S(C)(=O)=O)cc2)c2c(n1)c(-c1cc[nH]n1)nn2C` [Compound 7, 7-(4-Methanesulfonyl-phenyl)-1-methyl-5-((R)-3-methyl-morpholin-4-yl)-3-(1H-pyrazol-3-yl)-1H-pyrazolo[4,3-b]pyridine]: the “hERG % effect @ conc” value in data set [1] (@ 10 μM) is listed as −16%. Moreover, the Ki in data set [1] is over 10000 nM. Further, the IC50 on ATR/ATRIP was 2.3 nM; in data set [2], 10 to 100 nM.

On to `Cc1ccc(-c2cc(N3CCOC[C@H]3C)nc3c(-c4cc[nH]n4)nn(C)c23)cn1` [Compound 1, 1-Methyl-5-((R)-3-methyl-morpholin-4-yl)-7-(6-methyl-pyridin-3-yl)-3-(1H-pyrazol-3-yl)-1H-pyrazolo[4,3-b]pyridine], for which, in data set [1] (@ 30 μM), the “hERG % effect @ conc” value is given as −28%. In data set [1], this compound gave a Ki of over 30000 nM. In addition, the IC50 against ATR/ATRIP was 2.3 nM; in data set [2], 10 to 100 nM.

Regarding `C[C@@H]1COCCN1c1cc(-c2ccnc3[nH]ccc23)c2c(n1)c(-c1cc[nH]n1)nn2C` [Compound 15, 1-Methyl-5-((R)-3-methyl-morpholin-4-yl)-3-(1H-pyrazol-3-yl)-7-(1H-pyrrolo[2,3-b]pyridin-4-yl)-1H-pyrazolo[4,3-b]pyridine], the “hERG % effect @ conc” value in data set [1] (@ 10 μM) was −24%. In addition, the Ki in data set [1] was over 10000 nM. For the same compound, the IC50 against ATR/ATRIP was 0.6 nM; in data set [2] it was 10 to 100 nM.

Take `Cc1cccnc1-c1cc(N2CCOC[C@H]2C)nc2c(-c3cc[nH]n3)nn(C)c12` [Compound 62, (3R)-3-Methyl-4-[1-methyl-7-(3-methylpyridin-2-yl)-3-(1H-pyrazol-3-yl)-1H-pyrazolo[4,3-b]pyridin-5-yl]morpholine]: the IC50 at ATR/ATRIP was 22 nM; in data set [2], 1000 to 10000 nM.

Turning to `C[C@@H]1COCCN1c1ccc2[nH]nc(-c3cc[nH]n3)c2n1` [Compound 56, (3R)-3-Methyl-4-[3-(1H-pyrazol-3-yl)-1H-pyrazolo[4,3-b]pyridin-5-yl]morpholine], the IC50 on ATR/ATRIP was 25 nM; in data set [2], 1000 to 10000 nM.

On to `C[C@@H]1COCCN1c1ccc2c(n1)c(-c1ccn[nH]1)nn2Cc1ccccc1` [Compound 59, (3R)-4-[1-Benzyl-3-(1H-pyrazol-5-yl)-1H-pyrazolo[4,3-b]pyridin-5-yl]-3-methylmorpholine], for which the IC50 against ATR/ATRIP was 21 nM; in data set [2], 1000 to 10000 nM.
